Experimental data published in patent US6887827B2, “Combinations of herbicidal aromatic carboxylic acids and safeners” (Bayer CropScience GmbH, priority 2002, dated 2005).

Test system: Triticum aestivum (wheat)
Assay: Post-emergence crop plant selectivity field trial: visually scored damage to wheat
Type: in vivo
Conditions: wheat at 3-tiller growth stage, 39 days after treatment, average of three trials
Method: 1. Post-Emergence Effect on Weeds and Crop Plant Selectivity (Field Trials) Crop plants were grown outdoors on plots under natural outdoor conditions, and seeds or rhizome pieces of typical harmful plants were laid out or the natural weed growth was utilized. Treatment with the compositions according to the invention was carried out after the harmful plants had emerged and the crop plants were at the growth stage stated below. After the application, the effect of the composition was scored visually by comparison with untreated controls.

SMILES | Phytotox (%) on TRZAS (140 g ai/ha) [%] | Phytotox (%) on TRZAS (210 g ai/ha) [%] | Phytotox (%) on TRZAS (280 g ai/ha) [%] | Phytotox (%) on TRZAS (50 g ai/ha) [%] | Phytotox (%) on TRZAS (120 g ai/ha) [%]
COc1c(Cl)ccc(Cl)c1C(=O)O [(A1), 3,6-dichloro-2-methoxybenzoic acid] | 27 | 25 | 27 |  | 
CCOC(=O)C1=NN(c2ccc(Cl)cc2Cl)C(C)(C(=O)OCC)C1 (centres unmarked) [(B1.1.1), ethyl 1-(2,4-dichlorophenyl)-5-(ethoxycarbonyl)-5-methyl-2-pyrazoline-3-carboxylate] |  |  |  | 0 | 0
